Test results as given in patent US6689609B1, “Enhancing germination of plant somatic embryos by priming” (Cellfor Inc., priority 1999, dated 2004).
Like-named read-outs stand apart in the source and are kept apart here.

What was measured:
[1] = tested on: interior spruce somatic embryos; test: Elevated sucrose levels (4-10% w/v) and extended nutripriming (3-5 days): ex vitro germination and growth of interior spruce genotypes 5-1378 and 107-2049; assay type: in vivo, Picea glauca (Moench) Voss x P. engelmannii Parry ex Engelm.
Experimental: Mature somatic embryos of interior spruce (Picea glauca (Moench) Voss x P. engelmannii Parry ex Engelm.) genotypes 5-1378 and 107-2049 t were desiccated with the HRHT treatment and stored at 4° C. Embryos were subsequently removed from storage and nutriprimed for one of 3, 4, or 5 days periods as previously described in ½ m24GMD liquid medium containing one of the following sucrose concentrations; 4, 6, 8, and 10% (all w/v). After the nutripriming treatments were completed, the embryos were sown ex vitro onto a peat-based polymer-bound horticultural growing substrate in 504-cell (4 ml/cell) styrofoam miniplug trays (Grow-Tech Inc., San Bautista, Calif.). The sown trays were then placed into a conventional non-sterile horticulture germination chamber in an environment-controlled growth room. The environmental conditions were 22-24° C. air temperature, 80-100% RH, 0.10-0.15% CO2, and a 16-hr photoperiod with 40-120 μmol m^−2s^−1 photosynthetic photon flux. Immediately after the trays containing ex vitro sown nutriprimed embryos were placed into the non-sterile germination chamber, they were misted with a ½ m24GMD nutrient solution amended with 3% w/v sucrose solution until the surfaces of the non-sterile growing substrates were well-wetted. Subsequently, the trays were misted with this solution daily for a 3-week germination period. Aseptic techniques or conditions were not used for application of the nutrient solutions, nor for the germination environment during the 2-week culture period. Furthermore, prophylactic applications of 0.1 g/l benlate, 0.05 g/l ampicillin plus 0.05 g/l penicillin G (or 0.1 ampicillin), and 5 ml/l Gnatrol® were applied at 5-day intervals to control fungi, bacteria, and fungus fly larvae.

[2] = tested on: interior spruce somatic embryos; assay type: in vivo, Picea glauca (Moench) Voss x P. engelmannii Parry ex Engelm.
Excerpt: The second study assessed the effects adding various osmotica to nutripriming solutions on subsequent germination and development performance. Mature somatic embryos of interior spruce (Picea glauca (Moench) Voss x P. engelmannii Parry ex Engelm.) genotype 23-2672 were desiccated with the HRHT treatment, and then divided into 10 groups of 160 somatic embryos per group. One group was not primed and served as the HRHT control treatment for this study. […] The nutripriming solutions and embryos were placed into 250-ml Kimax® baffled flasks. The nutripriming duration was 72 hrs at temperatures ranging between 20-23° C., and a 24-hr photoperiod of 30 μmol m^−2s^−1 photosynthetic photon flux.
At the completion of the nutripriming step, the nutriprimed embryos from each treatment were divided into 8 groups of 20 embryos and sown by hand onto vermiculite media in Sigma polycarbonate boxes. The liquid media in these germination boxes were either 3% w/v sucrose m24GMD or m24GMD without sucrose. The experiment design was a random complete block design for each media type. Each nutripriming treatment had 4 replicates of 20 embryos in each germination media type. The germination boxes were placed in a germination room and grown for two weeks under 50-70 μmol m^−2s^−1 photosynthetic photon flux of 16-hour photoperiod at an air temperature of 23° C. The germinants were then harvested and assessed for germination rates, hyperhydricity rates, shoot and root length. Germination was defined as germinants having a root longer than 2 mm, and elongated hypercotyl. Hyperhydricity was defined by the thickening of hypercotyl and watery appearance of the germinants, whether germinated or not germinated.

[3] = genotype 5-1378, 3% sucrose in nutripriming solution, 3 days priming
[4] = genotype 5-1378, 4% sucrose in nutripriming solution, 3 days priming
[5] = genotype 5-1378, 4% sucrose in nutripriming solution, 4 days priming
[6] = genotype 5-1378, 4% sucrose in nutripriming solution, 5 days priming
[7] = genotype 5-1378, 6% sucrose in nutripriming solution, 3 days priming
[8] = genotype 5-1378, 6% sucrose in nutripriming solution, 4 days priming
[9] = genotype 5-1378, 6% sucrose in nutripriming solution, 5 days priming
[10] = genotype 5-1378, 8% sucrose in nutripriming solution, 3 days priming
[11] = genotype 5-1378, 8% sucrose in nutripriming solution, 4 days priming
[12] = genotype 5-1378, 8% sucrose in nutripriming solution, 5 days priming
[13] = genotype 5-1378, 10% sucrose in nutripriming solution, 3 days priming
[14] = genotype 5-1378, 10% sucrose in nutripriming solution, 4 days priming
[15] = genotype 5-1378, 10% sucrose in nutripriming solution, 5 days priming
[16] = genotype 107-2049, 3% sucrose in nutripriming solution, 3 days priming
[17] = genotype 107-2049, 4% sucrose in nutripriming solution, 3 days priming
[18] = genotype 107-2049, 4% sucrose in nutripriming solution, 4 days priming
[19] = genotype 107-2049, 4% sucrose in nutripriming solution, 5 days priming
[20] = genotype 107-2049, 6% sucrose in nutripriming solution, 3 days priming
[21] = genotype 107-2049, 6% sucrose in nutripriming solution, 4 days priming
[22] = genotype 107-2049, 6% sucrose in nutripriming solution, 5 days priming
[23] = genotype 107-2049, 8% sucrose in nutripriming solution, 3 days priming
[24] = genotype 107-2049, 8% sucrose in nutripriming solution, 4 days priming
[25] = genotype 107-2049, 8% sucrose in nutripriming solution, 5 days priming
[26] = genotype 107-2049, 10% sucrose in nutripriming solution, 3 days priming
[27] = genotype 107-2049, 10% sucrose in nutripriming solution, 4 days priming
[28] = genotype 107-2049, 10% sucrose in nutripriming solution, 5 days priming
[29] = germination media m24GMD (without sucrose), osmoticant levels as E220
[30] = germination media m24GMD plus 3% sucrose, osmoticant levels as E220

Structure (SMILES): OC[C@H]1O[C@@](CO)(O[C@H]2O[C@H](CO)[C@@H](O)[C@H](O)[C@H]2O)[C@@H](O)[C@@H]1O [sucrose]
- Germination % [1, 3]: 83.3 ± 8.8%
- Rooting % [1, 3]: 73.3 ± 8.8%
- Germination % [1, 4]: 98.3 ± 1.7%
- Rooting % [1, 4]: 86.7 ± 7.3%
- Germination % [1, 5]: 96.7 ± 3.3%
- Rooting % [1, 5]: 91.7 ± 4.4%
- Germination % [1, 6]: 96.5 ± 1.8%
- Rooting % [1, 6]: 91.5 ± 6.0%
- Germination % [1, 7]: 91.7 ± 4.4%
- Rooting % [1, 7]: 86.7 ± 3.3%
- Germination % [1, 8]: 96.7 ± 3.3%
- Rooting % [1, 8]: 90.0 ± 2.9%
- Germination % [1, 9]: 98.3 ± 1.7%
- Rooting % [1, 9]: 88.3 ± 4.4%
- Germination % [1, 10]: 91.7 ± 4.4%
- Rooting % [1, 10]: 66.7 ± 12.0%
- Germination % [1, 11]: 100%
- Rooting % [1, 11]: 91.7 ± 3.3%
- Germination % [1, 12]: 95.0 ± 5.0%
- Rooting % [1, 12]: 86.7 ± 8.3%
- Germination % [1, 13]: 84.7 ± 2.9%
- Rooting % [1, 13]: 52.5 ± 7.2%
- Germination % [1, 14]: 100%
- Rooting % [1, 14]: 88.3 ± 6.0%
- Germination % [1, 15]: 98.3 ± 1.7%
- Rooting % [1, 15]: 91.7 ± 4.4%
- Germination % [1, 16]: 91.7 ± 4.4%
- Rooting % [1, 16]: 68.3 ± 6.0%
- Germination % [1, 17]: 90.0 ± 5.0%
- Rooting % [1, 17]: 71.7 ± 8.8%
- Germination % [1, 18]: 84.6 ± 6.2%
- Rooting % [1, 18]: 62.3 ± 13.0%
- Germination % [1, 19]: 93.3 ± 6.7%
- Rooting % [1, 19]: 76.2 ± 4.5%
- Germination % [1, 20]: 81.7 ± 3.3%
- Rooting % [1, 20]: 66.7 ± 3.3%
- Germination % [1, 21]: 85.8 ± 2.2%
- Rooting % [1, 21]: 69.6 ± 6.1%
- Germination % [1, 22]: 86.7 ± 3.3%
- Rooting % [1, 22]: 70.0 ± 0.0%
- Germination % [1, 23]: 76.7 ± 4.4%
- Rooting % [1, 23]: 51.7 ± 4.4%
- Germination % [1, 24]: 93.3 ± 4.4%
- Rooting % [1, 24]: 88.3 ± 4.4%
- Germination % [1, 25]: 93.3 ± 4.4%
- Rooting % [1, 25]: 60.0 ± 0.0%
- Germination % [1, 26]: 81.7 ± 6.7%
- Rooting % [1, 26]: 36.7 ± 10.1%
- Germination % [1, 27]: 90.0 ± 7.6%
- Rooting % [1, 27]: 76.7 ± 8.3%
- Germination % [1, 28]: 86.7 ± 1.7%
- Rooting % [1, 28]: 51.7 ± 12.0%
- Germination % [2, 29]: 91.7 ± 8.3%
- Root length [2, 29]: 2.4 ± 0.1 mm
- Shoot length [2, 29]: 14.7 ± 0.3 mm
- Germination % ([2]; germination media m24GMD plus 3% sucrose, osmoticant in m24GMD priming solution (w/v): 1% betaine, 1.65% fructose, glucose, mannitol, sorbitol, 3% lactose, maltose, sucrose, 10% PEG 4000, 72 hrs): 100%
- Root length [2, 30]: 11.6 ± 0.9 mm
- Shoot length [2, 30]: 18.1 ± 0.4 mm
- % with hyperhydricity ([2]; in vivo): 40.0 ± 23.2%
